This note sets out measurements from patent US6410560B1, “Drug for relieving pain and promoting the removal of calculi in urolithiasis” (Kissei Pharmaceutical Co., Ltd., priority 1995, dated 2002).

This assay deals with human ureteral smooth muscle. In words: Relaxation of 40 mM KCl-induced contraction of isolated human ureteral smooth muscle strips. Type of assay: cell-based. The settings on record: for ureteral relaxing effect: 40 mM KCl-induced tonic contraction, 10^−6 M phentolamine present, FIG. 1. The method, then:
Measurement of the contractile force of the ureteral smooth muscle strip (1) Preparation of smooth muscle strips Specimens of human ureter were obtained from patients undergoing nephrectomy or total cystectomy. After the specimens were carefully dissected free from the surrounding fat tissues, they were cut into spiral strips. The ureteral strips of about 20 mm in length and 5 mm in width were prepared. (2) Experimental conditions Buffer solution; Locke's-solution No.2: NaCl (154 mM), KCl (5.6 mM), CaCl2 (2.1 mM), NaHCO3 (5.6 mM) and glucose (3.6 mM) Ureteral muscle strips without any spontaneous rhythmic contractions were used. An initial resting tension of about 1.0 g was placed. The actions of drugs against the 40 mM KCl-induced tonic contraction were evaluated in the presence of 10^−6 M phentolamine. […] The evaluation of drugs; The drug-induced relaxation was expressed as a percentage of the maximal relaxing response to 10^−5 M of isoproterenol. The ureteral tension before the treatment is indicated as 100%, and the tension after treatment of 10^−5 M of isoproterenol which produces maximal ureteral relaxation is indicated as 0%. According to the methods described above, the ureteral relaxing effects of the drug were measured using the human ureteral smooth muscle strips. According to the method described above, the interaction between a β-adrenoceptor stimulant and a β-adrenoceptor blocker was evaluated in human ureteral smooth muscle strips using the following drugs.

For `CC(C)(C)NCC(O)COc1cccc2[nH]c(=O)[nH]c12.Cl` (racemic) [CGP-12,177A, (±)-4-[3-[(1,1-dimethylethyl)amino]-2-hydroxypropoxy]-1,3-dihydro-2H-benzimidazol-2-one hydrochloride], the ureteral relaxing effect result is given as “produced apparent ureteral relaxation”. In the case of `Cc1ccc(OCC(O)C(C)NC(C)C)c2c1CCC2.Cl` (racemic) [ICI-118,551, (±)-1-[(2,3-dihydro-7-methyl-1H-inden-4-yl)oxy]-3-[(1-methylethyl)amino]-2-butanol hydrochloride], under “40 mM KCl contraction, ICI-118,551 100 nM pre-treatment, FIG. 2”, the “blocking of isoproterenol-induced ureteral relaxation” value is “attenuated the isoproterenol-induced ureteral relaxation, but did not completely block”. As to `CC(C)NCC(O)c1ccc(O)c(O)c1` (centres unmarked) [isoproterenol], the ureteral relaxing effect result is given as “showed a more potent relaxing effect”. The “relaxation produced by isoproterenol in the presence of ICI-118,551” value (40 mM KCl contraction, pre-treatment with 100 nM ICI-118,551, relative to maximal relaxation by 10^−5 M isoproterenol alone, FIG. 2) is listed as “about 50%”. Regarding `CCC(NC(C)C)C(O)c1ccc(O)c2[nH]c(=O)ccc12` (centres unmarked) [procaterol], the ureteral relaxing effect entry is recorded as “produced apparent ureteral relaxation”.
